The values below come from article PMC7589200, “Identification of Putative Non-Substrate-Based XT-I Inhibitors by Natural Product Library Screening” (Biomolecules, 2020).

The structures appear in SMILES notation. Structures can show the parent of a compound that is named as a salt.

This experiment addresses T1, recombinant human XT-I (Homo sapiens, UniProt Q86Y38).
T1 sequence (Q86Y38 252-959 limits assumed): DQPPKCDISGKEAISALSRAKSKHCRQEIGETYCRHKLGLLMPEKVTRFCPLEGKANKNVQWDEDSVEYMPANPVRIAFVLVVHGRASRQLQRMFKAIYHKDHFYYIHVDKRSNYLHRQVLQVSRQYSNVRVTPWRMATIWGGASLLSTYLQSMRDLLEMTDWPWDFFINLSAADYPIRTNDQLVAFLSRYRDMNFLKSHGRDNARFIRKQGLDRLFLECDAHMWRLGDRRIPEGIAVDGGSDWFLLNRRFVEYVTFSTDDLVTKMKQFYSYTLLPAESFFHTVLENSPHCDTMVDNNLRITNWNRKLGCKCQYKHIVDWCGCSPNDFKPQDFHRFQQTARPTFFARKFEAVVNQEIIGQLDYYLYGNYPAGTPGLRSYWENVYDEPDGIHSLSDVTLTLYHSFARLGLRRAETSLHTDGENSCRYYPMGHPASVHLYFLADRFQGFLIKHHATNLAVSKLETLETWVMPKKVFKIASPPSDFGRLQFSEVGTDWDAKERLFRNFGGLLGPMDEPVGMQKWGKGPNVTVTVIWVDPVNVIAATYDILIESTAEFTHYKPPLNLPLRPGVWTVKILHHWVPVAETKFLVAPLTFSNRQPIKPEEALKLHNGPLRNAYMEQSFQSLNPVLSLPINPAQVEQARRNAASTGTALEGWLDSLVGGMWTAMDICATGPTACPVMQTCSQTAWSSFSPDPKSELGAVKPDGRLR
Briefly: NP library inhibitor screening, UPLC/ESI-MS/MS XT-I assay. The format is biochemical. Particulars: Table S1; 50 μM inhibitor; relative to negative control containing DMSO; technical duplicates.
As for `CN(N=O)C(=O)N[C@H]1C(O)O[C@H](CO)[C@@H](O)[C@@H]1O` (mixture of isomers) [Compound 3, Streptozotocin (STZ)], the “XT-I Activity [%]” value stood at 101%.

As usually defined, the remaining activity is the signal under treatment as a percentage of the control signal. For the compound `OC[C@H]1O[C@@H](O[C@@H]2[C@@H](CO)OC(O)(CO)[C@H]2O)[C@H](O)[C@@H](O)[C@H]1O` (mixture of isomers) [Compound 16, Lactulose], the remaining activity at 50 µM turned out to be 122%.

As to `CO[C@H]1C[C@@H]2CC[C@@H](C)[C@@](O)(O2)C(=O)C(=O)N2CCCC[C@H]2C(=O)O[C@H]([C@H](C)C[C@@H]2CC[C@@H](O)[C@H](OC)C2)CC(=O)[C@H](C)/C=C(\C)[C@@H](O)[C@@H](OC)C(=O)[C@H](C)C[C@H](C)/C=C/C=C/C=C/1C` [Compound 1, Rapamycin (Sirolimus)], the remaining activity at 50 µM worked out at 70%.

In the case of `COc1cccc2c1C(=O)c1c(O)c3c(c(O)c1C2=O)C[C@@](O)(C(=O)CO)C[C@@H]3O[C@H]1C[C@H](N)[C@@H](O)[C@H](C)O1` [Compound 2, Epirubicin HCl], the remaining activity at 50 µM came out at 95%.

For the compound `C[C@@H](O)[C@H]1C(=O)N2C(C(=O)O)=C(S[C@@H]3CN[C@H](CNS(N)(=O)=O)C3)[C@H](C)[C@H]12.O` [Compound 4, Doripenem Hydrate], the “XT-I Activity [%]” value came out at 86%.

Regarding `C[C@H]1[C@H](NC(=O)/C(=N\OC(C)(C)C(=O)O)c2csc(N)n2)C(=O)N1S(=O)(=O)O` [Compound 5, Aztreonam], the remaining activity at 50 µM turned out to be 94%.

For `CC[C@H]1OC(=O)[C@H](C)[C@@H](O[C@H]2C[C@@](C)(OC)[C@@H](O)[C@H](C)O2)[C@H](C)[C@@H](O[C@@H]2O[C@H](C)C[C@H](N(C)C)[C@H]2O)[C@](C)(O)C[C@@H](C)C(=O)[C@H](C)[C@@H](O)[C@]1(C)O` [Compound 6, Erythromycin], the remaining activity at 50 µM was 105%.

Consider `Nc1[nH]c(=O)ncc1F` [Compound 7, Flucytosine], for which the remaining activity at 50 µM came out at 93%.

As for `CO[C@H]1/C=C/O[C@@]2(C)Oc3c(C)c(O)c4c(c3C2=O)C2=NC3(CCN(CC(C)C)CC3)NC2=C(NC(=O)/C(C)=C\C=C\[C@H](C)[C@H](O)[C@@H](C)[C@@H](O)[C@@H](C)[C@H](OC(C)=O)[C@@H]1C)C4=O` [Compound 8, Rifabutin], the remaining activity at 50 µM amounted to 112%.

Consider `Nc1ncnc2c1ncn2[C@@H]1O[C@H](CO)[C@@H](O)[C@@H]1O` [Compound 9, Vidarabine], for which the remaining activity at 50 µM was found to be 103%.

For the compound `O=c1c(-c2ccc(O)cc2)coc2cc(O)ccc12` [Compound 10, Daidzein], the remaining activity at 50 µM is 115%.

Take `CC(=O)[C@H]1CC[C@H]2[C@@H]3CC=C4C[C@@H](O)CC[C@]4(C)[C@H]3CC[C@]12C` [Compound 11, Pregnenolone]: the “XT-I Activity [%]” value is recorded as 95%.

For `CO[C@H]1/C=C\C=C(/C)C(=O)NC2=CC(=O)C(NCCN(C)C)=C(C[C@@H](C)C[C@H](OC)[C@H](O)[C@@H](C)/C=C(\C)[C@@H]1OC(N)=O)C2=O.Cl` [Compound 12, Alvespimycin (17-DMAG) HCl], the “XT-I Activity [%]” value is 120%.

Take `COc1cc([C@@H]2c3cc4c(cc3[C@@H](O[C@@H]3O[C@@H]5CO[C@@H](C)O[C@H]5[C@H](O)[C@H]3O)[C@H]3COC(=O)[C@H]23)OCO4)cc(OC)c1O` [Compound 13, Etoposide]: the remaining activity at 50 µM worked out at 114%.

`C=C1C(=O)O[C@@H]2/C=C(\C)CC/C=C(\C)CC[C@@H]12` [Compound 14, Costunolide]: the remaining activity at 50 µM was 121%.

Take `CC1=C(/C=C/C(C)=C/C=C/C(C)=C\C(=O)O)C(C)(C)CCC1` [Compound 15, Isotretinoin]: the remaining activity at 50 µM is 86%.

For `Cn1c(=O)c2[nH]cnc2n(C)c1=O` [Compound 18, Aminophylline], the remaining activity at 50 µM amounted to 122%.

In the case of `O=C(O)c1cccnc1` [Compound 19, Nicotinic Acid], the remaining activity at 50 µM worked out at 126%.

Regarding `CO[C@H]1/C=C/O[C@@]2(C)Oc3c(C)c(O)c4c(O)c(c5c(nc6cc(C)ccn65)c4c3C2=O)NC(=O)/C(C)=C\C=C\[C@H](C)[C@H](O)[C@@H](C)[C@@H](O)[C@@H](C)[C@H](OC(C)=O)[C@@H]1C` [Compound 20, Rifaximin], the remaining activity at 50 µM was 83%.

On to `CCn1cc(C(=O)O)c(=O)c2cc(F)c(N3CCN(C)CC3)cc21` [Compound 21, Pefloxacin Mesylate], for which the remaining activity at 50 µM was found to be 108%.

Turning to `Cc1cc(NS(=O)(=O)c2ccc(N)cc2)no1` [Compound 22, Sulfamethoxazole], the remaining activity at 50 µM worked out at 121%.

With `CC(=O)O[C@@]12CO[C@@H]1C[C@H](O)[C@@]1(C)C(=O)[C@H](O)C3=C(C)[C@@H](OC(=O)[C@H](O)[C@@H](NC(=O)OC(C)(C)C)c4ccccc4)C[C@@](O)([C@@H](OC(=O)c4ccccc4)[C@H]21)C3(C)C` [Compound 23, Docetaxel], the remaining activity at 50 µM came out at 104%.

For `COc1cc2c(cc1O)CC[C@@H]1[C@@H]2CC[C@]2(C)[C@@H](O)CC[C@@H]12` [Compound 24, 2-Methoxyestradiol (2-MeOE2)], the “XT-I Activity [%]” value was determined as 114%.

Turning to `C[C@@H]1C[C@H]2[C@@H]3CCC4=CC(=O)C=C[C@]4(C)[C@@]3(F)[C@@H](O)C[C@]2(C)[C@@]1(O)C(=O)CO` [Compound 25, Dexamethasone (DHAP)], the “XT-I Activity [%]” value was found to be 106%.

Take `C[C@@H](O)[C@H]1C(=O)N2C(C(=O)O)=C(S[C@@H]3CN[C@H](C(=O)N(C)C)C3)[C@H](C)[C@H]12` [Compound 26, Meropenem]: the remaining activity at 50 µM amounted to 107%.

On to `C[C@@H]1C/C=C/C=C/C=C/C=C/[C@H](O[C@@H]2O[C@H](C)[C@@H](O)[C@H](N)[C@@H]2O)C[C@@H]2O[C@](O)(C[C@@H](O)C[C@H]3O[C@@H]3/C=C/C(=O)O1)C[C@H](O)[C@H]2C(=O)O` [Compound 27, Natamycin], for which the remaining activity at 50 µM was 95%.

As for `CCCSc1ccc2nc(NC(=O)OC)[nH]c2c1` [Compound 28, Albendazole], the remaining activity at 50 µM is 77%.

Turning to `CCC(C)(C)c1ccc(CC(C)CN2C[C@@H](C)O[C@@H](C)C2)cc1` (stereo partly drawn) [Compound 29, Amorolfine HCl], the remaining activity at 50 µM was 70%.

Regarding `CO[C@H]1/C=C/O[C@@]2(C)Oc3c(C)c(O)c4c(O)c(c(/C=N/N5CCN(C6CCCC6)CC5)c(O)c4c3C2=O)NC(=O)/C(C)=C\C=C\[C@H](C)[C@H](O)[C@@H](C)[C@@H](O)[C@@H](C)[C@H](OC(C)=O)[C@@H]1C` [Compound 30, Rifapentine], the remaining activity at 50 µM was found to be 50%.

On to `CCC(C)(C)C(=O)O[C@H]1C[C@@H](C)C=C2C=C[C@H](C)[C@H](CC[C@@H]3C[C@@H](O)CC(=O)O3)[C@H]21` [Compound 31, Simvastatin], for which the remaining activity at 50 µM was found to be 82%.

As for `CC(C)[C@H](N)C(=O)OCCOCn1cnc2c(=O)nc(N)[nH]c21.Cl` [Compound 32, Valaciclovir HCl], the “XT-I Activity [%]” value is listed as 74%.

As to `Cc1noc(NS(=O)(=O)c2ccc(N)cc2)c1C` [Compound 33, Sulfisoxazole], the remaining activity at 50 µM worked out at 95%.

As for `CC(=O)O[C@H]1C(=O)[C@@]2(C)[C@H]([C@H](OC(=O)c3ccccc3)[C@]3(O)C[C@H](OC(=O)[C@H](O)[C@@H](NC(=O)c4ccccc4)c4ccccc4)C(C)=C1C3(C)C)[C@]1(OC(C)=O)CO[C@@H]1C[C@@H]2O` [Compound 34, Paclitaxel], the remaining activity at 50 µM came out at 79%.
